What was measured:
Format in all cases: cell-based, human
[1] = system: dissociated tip colony cells; experiment: Collecting duct progenitor induction, 2D culture with immunostaining
Protocol: For 2D cultures, day 7 tip cell colonies detached from hydrogel were dissociated into single cells by pipetting after treatment with Accutase for 3 min at 37° C. The single cells were resuspended with Essential 6 medium containing 1 μM IWR-1 (Tocris) and 0.5 μL/cm^2 iMatrix-511 silk with or without 1 μM A83-01 and seeded at a density of 4×10^4 cells/well in 96-well plates. For 3D cultures, day 14 reconstituted iUB organoids were treated with Essential 6 medium containing 1 μM IWR-1 and 1 μM A83-01 for 14 days.
Immunostaining analysis was performed as described previously with some modifications (Mae, SI. & Ryosaka, M. et al. Biochem Biophys Res Commun. 495, 954-61 (2018)). For 2D cultures, the cells were fixed with 4% paraformaldehyde (PFA)/PBS for 20 min at 4° C. After washing with PBS twice, the cells were blocked with 18 normal donkey serum (MERCK) and 3% bovine serum albumin (BSA; Nacalai Tesque)/PBST (PBS/0.25% Triton X-100, Nacalai Tesque) for 1 h at room temperature. Primary antibodies were diluted with blocking solution at 1:500 and incubated with the samples overnight at 4° C. After washing with PBST twice, secondary antibodies diluted with blocking solution at 1:500 were incubated for 1 h at room temperature.

tip cell colonies = experiment: Reconstitution of iUB organoids from tip cell colonies; conditions: organoid medium with CHIR99021
Protocol: Hydrogel was dissolved with Cell Recovery Solution (BD Biosciences) for 1 h at 4° C. to detach day 7 tip cell colonies. After washing with additional Cell Recovery Solution, the tip cell colonies were centrifuged at 500 g for 5 min at room temperature. Essential 6 medium containing 0.1 μM LDN193189, 100 ng/ml GDNF, 0.1 μM TTNPB, 200 ng/ml FGF8, 1 μM CHIR99021 or 10% Afamin/Wnt3a conditioned medium (MBL), 200 ng/ml R-spondin 1 (R&D systems), 50 ng/ml EGF, 200 ng/ml FGF1 and 10% Matrigel was applied to the tube including tip cell colonies. After pipetting gently with a wide-mouth micropipette (BMBio) not to break colonies, the suspension was distributed to low-attachment 35 mm dish (Sumitomo Bakelite) at 2 mL/dish. The medium was refreshed every 2 days. On day 4, each colony was placed onto one well of low-attachment 96-well plates in the same medium. After an additional 6 days, the tip region was separated from the reconstituted iUB organoid and treated with the same medium for 35 days.

[2] = system: ND aggregates / iUB organoids; experiment: iUB organoid induction from ND aggregates; conditions: 50 ng/ml EGF and 200 ng/ml FGF1 added together to organoid medium
Protocol: Unwanted cells were removed from the ND aggregates by pipetting (Mae, SI. & Ryosaka, M. et al. Biochem Biophys Res Commun. 495, 954-61 (2018)). The ND aggregates were treated with the same medium and factors containing 2% Matrigel for 6 days to constitute iUB organoids with epithelial polarity and tubular lumens. 50 ng/ml EGF (R&D Systems) and 200 ng/ml FGF1 (R&D Systems) were added to enhance budding. The tips were mechanically separated from iUB organoids and cultured in the same medium and factors containing 2% Matrigel for 6 to 14 days to reconstitute branching iUB organoids. The tips separated from the reconstituted iUB organoids were treated with the same medium and factors to repeatedly reconstitute iUB organoids.

**Q.** For `O=C(Nc1cccc2cccnc12)c1ccc(N2C(=O)[C@@H]3[C@H](C2=O)[C@@H]2C=C[C@H]3C2)cc1` [IWR-1], which “differentiation into AQP2-expressing, CAII-negative cells” value ([1]; 1 μM IWR-1, day 7 of 2D culture) is on record?
**A.** The value was “facilitated the differentiation of dissociated tip colony cells into the cells expressing a collecting duct principal cell marker, Aquaporin (AQP) 2”.

**Q.** `Cc1c[nH]c(-c2cnc(NCCNc3ccc(C#N)cn3)nc2-c2ccc(Cl)cc2Cl)n1` [CHIR99021, 6-[2-[4-(2,4-Dichlorophenyl)-5-(4-methyl-1H-imidazole-2-yl)pyrimidine-2-ylamino]ethylamino]pyridine-3-carbonitrile] was tested. Which “reconstitution of iUB organoids from tip cell colonies” value (tip cell colonies) did it give?
**A.** Its value is “only observed with tip cell colonies derived from 585A1 iPS cells”.

**Q.** “EGF: protein called Epidermal Growth Factor (R&D systems) (NSDSECPLSHDGYCLHDGVCMYIEALDKYACNCVVGYIGERCQYRDLKWWELR; Epidermal growth factor; UniProt P01133 971-1023, looked up)” was tested. Which “budding of iUB organoids” value [2] did it give?
**A.** The value was “promoted budding”.

**Q.** With FGF1: fibroblast growth factor as the compound, how does the “budding of iUB organoids” value [2] read?
**A.** The value was “promoted budding”.

**Q.** `Cc1cccc(-c2nn(C(=S)Nc3ccccc3)cc2-c2ccnc3ccccc23)n1` [A83-01, 3-(6-Methyl-2-pyridinyl)-N-phenyl-4-(4-quinolinyl)-1H-pyrazole-1-carbothioamide] was tested. Which “induction rates of AQP2-expressing cells” value ([1]; 1 μM A83-01 in combination with 1 μM IWR-1, day 7 of 2D culture) did it give?
**A.** The value was “improved the induction rates of these cells”.

Source: patent publication US12577536B2, “Method for isolating ureteric bud tip cells” (KYOTO UNIVERSITY, priority 2019, dated 2026)
